This is an account of results in article PMC2974656, “Selective killing of human immunodeficiency virus infected cells by non-nucleoside reverse transcriptase inhibitor-induced activation of HIV protease” (Retrovirology, 2010).

For data set [1], the system named is intracellular Gag processing by HIV PR. It counts as cell-based, HIV-1. The note with it: 293T cells, 44 h post transfection. How it is done: In previous studies, high concentrations of NNRTI (5 μM) were required to observe NNRTI mediated activation of intracellular HIV PR activity. […]. Towards this end, we developed a biochemical assay for gel independent quantitation of intracellular Gag processing by HIV PR in the context of a virus producing cell. We had previously shown that additional protein domains, consisting of small epitope tags or even the 27 kDa green fluorescent protein (EGFP), can be inserted between the MA and CA domains of the Gag and Gag-Pol polyproteins without affecting polyprotein production or processing by HIV PR [36]. Based on this, we designed a HIV reporter construct which contained a small N-terminal fragment ('alpha peptide') of Escherichia coli beta-galactosidase (β-Gal), flanked by two HIV PR recognition sites, between the MA and CA coding sequences of Gag (Figure 1A). […] This so called alpha complementation principle can be exploited for use in mammalian cells and has been employed for the establishment of various cell based biochemical assay systems. We reasoned that embedding of the small alpha peptide within the multi-domain polyproteins Gag or Gag-Pol, respectively, should impair its productive association with the omega subunit, while proteolytic release of the alpha peptide from the polyprotein by PR would allow the formation of enzymatically active β-Gal. This should allow us to monitor intracellular Gag and Gag-Pol processing through increased β-Gal activity.
Reconstituted β-Gal activity in cell lysates was measured by cleavage of the chromogenic substrate CPRG [42] as described in Methods.
The activity of β-Gal in cell lysates from transfected 293T cells was measured by enzymatic cleavage of the chromogenic β-Gal substrate chlorphenolred-β-D-galactopyranoside (CPRG, Roche; [42]). At 44 h post transfection, cells were briefly rinsed with PBS and suspended in reporter gene assay lysis buffer (Roche, 600 μl per 6-well dish) supplemented with a protease inhibitor mix (Roche). Cell suspensions were incubated for 10 min at room temperature and cell debris was subsequently removed by brief centrifugation. Five μl of supernatant were diluted in 96-well plates with 95 μl CPRG reaction buffer (50 mM potassium phosphate, pH 7.5, 1 mM MgCl2) and pre-warmed for 5 min to 37°C. 100 μl of pre-warmed reaction mix (100 μM CPRG in CPRG reaction buffer supplemented with protease inhibitor cocktail and 40 μM β-mercaptoethanol) were added and β-Gal mediated cleavage of CPRG was monitored by recording absorption at 592 nm every 2 min for 20 min at 37°C using a TECAN Safire multi-well reader. OD592 values were plotted over time and relative reaction rates (OD592/min) were determined from the initial linear velocities.

For data set [2], the system named is MT4-CMV-EGFP control cells. In words: Cytotoxicity on uninfected control cells, EGFP fluorescence per well. It counts as cell-based. As for the experimental part: (§1) The cytotoxicity of inhibitors was determined in parallel on MT4-CMV-EGFP control cells and on MT4-LTR-EGFP-IIIB virus producing cells, respectively.
Data set [3] concerns MT4-LTR-EGFP-IIIB HIV-1 producing cells. In words: in vitro. It counts as cell-based. How it is done: as §1
A further data set concerns MT4-LTR-EGFP-IIIB cells. The class given is cell-based. The note with it: 1 μM, 6 days, trypan blue. From the text:
(§2) In MT4-LTR-EGFP-IIIB cells, HIV expression could additionally be detected through long terminal repeat (LTR) driven expression of the gfp marker gene. As a control we used uninfected MT-4 cells or MT4-CMV-EGFP cells, constitutively expressing EGFP from a CMV promoter, respectively.
(§3) Cell lysates were harvested and analyzed by immunoblot using antiserum raised against HIV-1 CA. Positions of Gag and Gag-Pol processing products are marked at the right, molecular mass standards are indicated to the left (in kDa). […] Live cells were counted after trypan blue staining. Data represent mean values and standard deviations from three parallel cultures.

Data set [4] concerns MT4-LTR-EGFP parental cells. The note with it: 1 μM, 6 days, trypan blue.
Excerpt: as §2, §3

Data set [5] has as its system Gag processing in MT-4-IIIB cells. In words: Immunoblot of Gag processing in chronically infected MT-4 cells. It counts as cell-based, HIV-1. The note with it: 1 μM, day 2 post addition.
A further data set concerns HIV-1AGFP infected PBMC. In words: Killing of HIV-1 infected PBMC, proportion of GFP expressing cells by flow cytometry. It counts as cell-based, human. The note with it: 1 μM NNRTI, added day 2 post infection with AMD-3100, 5 days. (In general: In flow cytometry, cells or beads pass a laser one at a time.)
For data set [6], the system named is HXB2D-EGFP infected CD4 positive cells isolated from PBMC. In words: Killing of HIV-1 infected CD4 positive primary T-cells, flow cytometry. The conditions noted are these: 1 μM NNRTI + 1 μM AZT, 3 days. It counts as cell-based, human. As for the experimental part:
To validate our results obtained for the persistently infected cell line in a more relevant cell system we performed additional infection experiments using human peripheral blood mononuclear cells (PBMC). […]. PBMC isolated from healthy blood donors were activated and infected with a replication competent HIV-1 derivative which carries a gfp gene in the nef locus. The co-receptor antagonist AMD-3100 was added at day 2 post infection to prevent further viral spread. This was done to distinguish the proposed killing of infected cells from the inhibitory effect of NNRTIs and PIs on virus replication. […]. […] Similar results were obtained upon infection of CD4-positive primary T-cells with an EGFP-expressing virus (Figure 4B).
Figure 4 NNRTI induced selective killing of HIV-1 infected primary human cells. (A) PBMC prepared from buffy coats of healthy blood donors were infected with HIV-1AGFP. At day 2 post infection, 100 ng/ml AMD-3100 was added to all samples to prevent further infection. […] After further incubation for 5 days, cells were harvested and analyzed for the proportion of infected GFP expressing cells by flow cytometry. […] P-values were calculated using a two-tailed unpaired t-test (GraphPad Prism). Values were normalized to the respective solvent control. (B) CD4 positive cells isolated from PBMC were infected with HXB2D-EGFP. […] After further incubation for 3 days, cells were harvested and analyzed for the proportion of infected cells by flow cytometry. […] Asterisks: non-infected controls.
Peripheral blood mononuclear cells (PBMC) were purified from buffy coats of HIV-negative blood donors, grown in supplemented RPMI 1640 and stimulated by the addition of 10 ng/ml IL-2 (Biomol) and 2 μg/ml PHA (Sigma). PBMC pooled from two donors each were used for infection. […] For infection of PBMC, the HIV-1 derivatives HIV-1-AGFP [49] carrying the gfp gene fused to the codon for amino acid 16 of Nef in pNL4-3, or HXB2D-EGFP [60], which carries an egfp gene in the place of the viral nef open reading frame, were used as indicated. […]

Description for HIV-1AGFP infected PBMC: PBMC isolated from healthy blood donors were activated and infected with a replication competent HIV-1 derivative which carries a gfp gene in the nef locus [49]. The co-receptor antagonist AMD-3100 was added at day 2 post infection to prevent further viral spread.

The term CC50 denotes the concentration that lowers cell viability or growth by half. For the compound `NS(=O)(=O)c1ccc(NC(=O)CSc2nnc(Br)n2-c2ccc(C3CC3)c3ccccc23)c(Cl)c1` [VRX-480773], the “Concentration showing strong β-Gal activity enhancement” value in data set [1] is ~ 250 nM. Moreover, in data set [2], the CC50 amounted to 5.82 ± 1.44 µM and the “CC50 on uninfected control cells relative to virus producing cells” value is listed as ~ 10 fold. Further, the CC50 in data set [3] (4 days, no DRV, mean ± SD, tested up to 10 μM, read-out: Cytotoxicity on MT4-LTR-EGFP-IIIB HIV-1 producing cells CC50) is 680 ± 340 nM. For the same compound, in data set [3] (summary of Table 1), the “Cytotoxicity on MT4-LTR-EGFP-IIIB cells, in words” value is “submicromolar range”. Besides, the “Live cell numbers, HIV infected MT4-LTR-EGFP-IIIB cells” value in the data set with MT4-LTR-EGFP-IIIB cells was “significant decrease”. In addition, in data set [4], the “Number of uninfected control cells” value is listed as “remained constant”. For the same compound, the “NNRTI mediated enhancement of Gag processing in virus producing cells” value in data set [5] is “decreased ratio of Gag to intermediate and fully mature processing products”. Further, the “Infected primary cells (PBMC) as compared with the control” value in the data set with HIV-1AGFP infected PBMC is “significant reduction”. The “Cytotoxicity on infected CD4-positive primary T-cells” value in data set [6] is “PR dependent cytotoxicity”.
